Results reported in patent US8507219B2, “Method of treating inflammation with statins” (MUSC Foundation for Research Development, priority 1997, dated 2013).
Entries after “also recorded” stand apart in the source; their conditions may differ.

Columns and labels:
[1] = test system: ceramide production in rat primary astrocytes; assay: Degradation of sphingomyelin to ceramide (DAG kinase assay, HPTLC) in rat primary astrocytes; format: cell-based; settings: 10 mM NAC or 100 μM PDTC 1 h before TNF-α or IL-1β (50 ng/ml), diamide 0.5 mM or aminotriazole 5 mM
How it was run: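 About 1.0×10^6 cells were exposed to cytokines with or without antioxidants for various periods, then lipids were extracted. Sphingomyelin was separated by HPTLC and quantified by densitometry. Ceramide was phosphorylated with DAG kinase and [γ-^32P]ATP, and ceramide 1-phosphate was resolved by TLC and quantified by autoradiography/densitometry, expressed as arbitrary absorbance units or percent change.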

[2] = test system: NOS activity in rat resident macrophages; assay: NOS activity (L-citrulline from L-arginine) in homogenates of treated rat resident macrophages; format: cell-based; settings: for inhibition at 20000 µM: Rattus norvegicus, Macrophage
Experimental: NOS activity was measured directly by production of L-[2,3,4,5-^3H]citrulline from L-[2,3,4,5-^3H] arginine (Feinstein et al., 1994a). […] Assays were carried out for 30 to 40 min and the production of L-[2,3,4,5-^3H] citrulline was linear. The reactions were stopped by addition of 800 μl of ice-cold 20 mM HEPES (pH 5.5) followed by addition of 2 ml of Dowex-50W equilibrated in the same buffer. The samples were then centrifuged and the concentration of L-[^3H]citrulline was determined in the supernatant by liquid scintillation counting.

[3] = test system: intracellular GSH in rat primary astrocytes; assay: Intracellular GSH / GSSG in rat primary astrocytes; format: cell-based; settings: 10 mM NAC 1 h; TNF-α or IL-1β 50 ng/ml; diamide 0.5 mM
Experimental: Measurement of reduced glutathione (GSH) concentration in rat primary astrocytes Concentration of intracellular GSH was measured using a colorimetric assay kit for GSH from RandD, USA. Briefly, 2×10^6 cells were homogenized in 500 μl of ice-cold 5% metaphosphoric acid and centrifuged at 3000 g for 10 min. Supernatants were used to assay GSH using 4-chloro-1-methyl-7-trifluoromethyl-quinolinium methylsulfate and 30% NaOH at 400 nm.
Measurement of GSH (Reduced Glutathione) and GSSG Oxidized Glutathione Concentration of intracellular reduced GSH was measured using a calorimetric assay kit for GSH from R & D Systems. Briefly, 2×10^6 cells were homogenized in 500 μl of ice-cold 5% metaphosphoric acid and centrifuged at 3000×g for 10 min. Supernatants were used to assay GSH using 4-chloro-1-methyl-7-trifluoromethylquinolinium methylsulfate and 30% NaOH at 400 nm. Concentration of GSSG was determined according to the method of Griffith (1980) after derivatization with 2-vinylpyridine for 30 min at room temperature.

[4] = test system: rat primary microglia, oligodendrocytes and C6 glial cells; assay: TNF-α-induced ceramide production in rat primary microglia, oligodendrocytes and C6 glial cells; format: cell-based; settings: 10 mM NAC 1 h, TNF-α 50 ng/ml
[5] = test system: TNF-α production in rat resident macrophages; assay: LPS-/IFN-γ-induced TNF-α production (ELISA) in rat macrophages; format: cell-based; settings: for inhibition at 20000 µM: Rattus norvegicus, Macrophage
Experimental: Resident macrophages cultured in serum-free RPMI 1640 medium received 20 mM NAC or 100 μM PDTC 2 h before the addition of stimuli. When stimuli were used separately their concentrations were: LPS, 1.0 μg/ml; IFN-γ, 200 U/ml, and when they were used together, their concentrations were: LPS, 0.2 μg/ml; IFN-γ, 50 U/ml. Supernatants were collected 24 h after the addition of stimuli to measure TNF-α concentration using ELISA as described.

[6] = in vivo; cited from earlier work
[7] = IFN-γ 200 U/ml, NAC 20 mM 2 h before
[8] = IL-1β 200 ng/ml, NAC 20 mM 2 h before
[9] = LPS 0.2 μg/ml + IFN-γ 50 U/ml, NAC 20 mM 2 h before
[10] = LPS 0.2 μg/ml + IL-1β 25 ng/ml, NAC 20 mM 2 h before
[11] = LPS 0.2 μg/ml + TNF-α 20 ng/ml, NAC 20 mM 2 h before
[12] = LPS 1.0 μg/ml, NAC 20 mM 2 h before
[13] = TNF-α 20 ng/ml + IFN-γ 50 U/ml, NAC 20 mM 2 h before
[14] = TNF-α 20 ng/ml + IL-1β 25 ng/ml, NAC 20 mM 2 h before
[15] = TNF-α 100 ng/ml, NAC 20 mM 2 h before
[16] = no stimulus (Control), NAC 20 mM

For `CC(=O)N[C@@H](CS)C(=O)O` [NAC, N-acetyl cysteine], the “degradation of sphingomyelin to ceramide / ceramide production” value [1] was “potentially blocked the decrease in sphingomyelin as well as the increase in ceramide; also recorded: blocked diamide-mediated decrease in GSH level and induction of ceramide production; also recorded: blocked the ATZ-mediated increase in ceramide production”, the “L-citrulline (NOS activity)” value [2, 7] was 13.2 ± 2.4 pmol/min/mg and the “L-citrulline (NOS activity)” value [2, 8] was 12.9 ± 2.1 pmol/min/mg. The “L-citrulline (NOS activity)” value [2, 9] was 32.3 ± 4.6 pmol/min/mg, the “L-citrulline (NOS activity)” value [2, 10] was 44.9 ± 6.1 pmol/min/mg and the “L-citrulline (NOS activity)” value [2, 11] was 19.7 ± 2.7 pmol/min/mg. The “LPS-induced NOS activity, L-citrulline formation” value ([2]; LPS 1.0 μg/ml, 24 h) was “formation of L-citrulline was strongly inhibited; also recorded: inhibited LPS-induced NOS activity”, the “L-citrulline (NOS activity)” value [2, 12] was 14.2 ± 2.3 pmol/min/mg and the inhibition at 20000 µM [2, 7] was 90%. For the same compound, the inhibition at 20000 µM [2, 8] was 43%, the inhibition at 20000 µM [2, 9] was 83% and the inhibition at 20000 µM [2, 10] was 78%. It also gave an inhibition at 20000 µM [2, 11] of 91%, an inhibition at 20000 µM [2, 12] of 91% and an inhibition at 20000 µM [2, 13] of 82%. For the same compound, the inhibition at 20000 µM [2, 14] was 85%, the inhibition at 20000 µM [2, 15] was 61% and the inhibition at 20000 µM [2, 16] was 25%. For the same compound, the “L-citrulline (NOS activity)” value [2, 13] was 36.9 ± 3.4 pmol/min/mg, the “L-citrulline (NOS activity)” value [2, 14] was 28.2 ± 4.3 pmol/min/mg and the “L-citrulline (NOS activity)” value [2, 15] was 12.9 ± 2.3 pmol/min/mg. The “L-citrulline (NOS activity)” value [2, 16] was 10.2 ± 0.9 pmol/min/mg, the “intracellular level of GSH / GSSG” value [3] was “intracellular level of GSH did not decrease when cells were stimulated with cytokines in presence of NAC; also recorded: lack of decrease of GSH” and the “TNF-α-induced production of ceramide” value [4] was “potently blocked the TNF-α-induced production of ceramide in microglia, oligodendrocytes and C6 glial cells; also recorded: potently blocked the TNF-α-induced production of ceramide in microglia, oligodendrocytes, and C6 glial cells”. The TNF-α ([5]; LPS 0.2 μg/ml + IFN-γ 50 U/ml, 20 mM NAC or 100 μM PDTC 2 h before, 24 h) was 2.3 ± 0.2 ng/24 h/mg protein, the TNF-α ([5]; LPS 1.0 μg/ml, 20 mM NAC or 100 μM PDTC 2 h before, 24 h) was 1.6 ± 0.3 ng/24 h/mg protein and the inhibition at 20000 µM ([5]; LPS 0.2 μg/ml + IFN-γ 50 U/ml, 20 mM NAC or 100 μM PDTC 2 h before) was 93%. The inhibition at 20000 µM ([5]; LPS 1.0 μg/ml, 20 mM NAC or 100 μM PDTC 2 h before) was 92% and the TNF-α ([5]; antioxidant alone (20 mM NAC or 100 μM PDTC), no stimulus) was 0.6 ± 0.2 ng/24 h/mg protein.
In the case of `O=C([O-])Cc1ccccc1.[Na+]` [NaPA, sodium salt of phenylacetic acid], the pharmacologically attainable concentration [6] is given as 1 to 5 mM.
